In patent publication US6737383B1, “Herbicidal oxadiazolidines” (priority 1999, dated 2004):

Tests used:
bamyardgrass = assay: Test B flood test barnyardgrass; type: in vivo, Echinochloa crus-galli
Summary of the method: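 Flood test on plants grown to the 2-leaf stage; treated plants kept in greenhouse twelve to sixteen days, then visually rated against controls on a 0 (no effect) to 10 (complete control) scale.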

surinam grass = assay: Test B pre/postemergence surinam grass; type: in vivo, Brachiaria decumbens
Summary of the method: (§1)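 Test chemicals in a non-phytotoxic solvent mixture with surfactant were sprayed preemergence onto planted seeds and postemergence onto plants 2 to 18 cm tall (1- to 4-leaf stage). After twelve to sixteen days in a greenhouse, injury was visually rated against untreated controls from 0 (no effect) to 10 (complete control).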

wild oat = assay: Test B pre/postemergence wild oat; type: in vivo, Avena fatua
Summary of the method: as §1

bedstraw = assay: Test B pre/postemergence bedstraw; type: in vivo, Galium aparine
Summary of the method: as §1

[1] = Postemergence, Rate 125 g/ha, scale 0 to 10, 0 is no effect, 10 is complete control
[2] = Preemergence, Rate 62 g/ha, scale of 0 to 10 where 0 is no effect and 10 is complete control
[3] = Preemergence, Rate 250 g/ha, scale of 0 to 10 where 0 is no effect and 10 is complete control
[4] = Preemergence, Rate 500 g/ha, scale of 0 to 10 where 0 is no effect and 10 is complete control
[5] = Rate 62 g/ha, Postemergence, scale 0 to 10 (0 no effect, 10 complete control)
[6] = Rate 250 g/ha, Postemergence, scale of 0 to 10 where 0 is no effect and 10 is complete control
[7] = Rate 500 g/ha, Postemergence, scale 0 to 10, 0 no effect, 10 complete control
[8] = Preemergence, Rate 62 g/ha, scale 0 to 10 (0 no effect, 10 complete control)
[9] = Rate 62 g/ha, Postemergence, scale of 0 to 10 where 0 is no effect and 10 is complete control

Row | SMILES | Plant response rating, B. signalgrass (surinam grass; [1]) | B. signalgrass plant response rating (0 to 10 scale, 0 is no effect, 10 is complete control) (surinam grass; Preemergence, Rate 125 g/ha) | B. signalgrass plant response rating (surinam grass; [3]) | B. signalgrass plant response rating (surinam grass; [4]) | Plant response rating, B. signalgrass (surinam grass; [6]) | Plant response rating, B. signalgrass (surinam grass; [7]) | Plant response rating, Wild oats (wild oat; [1]) | Wild oats plant response rating (0 to 10 scale) (wild oat; Preemergence, Rate 125 g/ha) | Wild oats plant response rating (wild oat; [3]) | Wild oats plant response rating (wild oat; [4]) | Plant response rating, Wild oats (wild oat; [7]) | Plant response rating, Bedstraw (bedstraw; [1]) | Bedstraw plant response rating (0 to 10 scale) (bedstraw; Preemergence, Rate 125 g/ha) | Bedstraw plant response rating (bedstraw; [3]) | further results
1 | Cc1ccccc1-n1c(=O)on(C(=O)N(c2ccc(Cl)cc2)C(C)C2CC2)c1=O (centres unmarked) [Compound 330] | 0 | 0 | 0 | 0 | 0 | 0 | 0 | 0 | 0 | 0 | 0 | 0 | 0 | 0 | Barnyardgrass plant response rating (bamyardgrass; Rate 62 g/ha, headed Pre-emergence (flood test species), scale 0 to 10 (0 no effect, 10 complete control)): 0; Barnyardgrass plant response rating (bamyardgrass; Rate 125 g/ha, Pre-emergence, flood test species, scale 0 to 10 where 0 is no effect and 10 is complete control): 0; Barnyardgrass plant response rating (bamyardgrass; Rate 250 g/ha, Pre-emergence, flood-test species, scale 0 to 10, 0 is no effect, 10 is complete control): 0; Barnyardgrass plant response rating (bamyardgrass; Rate 500 g/ha, Pre-emergence, flood test species, scale 0 to 10 (0 no effect, 10 complete control)): 0; B. signalgrass plant response rating (surinam grass; [2]): 0; B. signalgrass plant response rating (surinam grass; [5]): 0; Wild oats plant response rating (wild oat; [2]): 0; Wild oats plant response rating (wild oat; [5]): 0; Bedstraw plant response rating (bedstraw; [4]): 0; Bedstraw plant response rating (bedstraw; [5]): 0
2 | CC(C)N(C(=O)n1oc(=O)n(C2CCCCCC2)c1=O)c1ccc(F)cc1F [Compound 342] | 0 | 0 | 2 | 6 | 0 | 1 | 0 | 0 | 0 | 4 | 0 | 5 | 0 | 0 | Plant response rating, Barnyardgrass (bamyardgrass; Postemergence (flood test), Rate 125 g/ha, scale 0 to 10, 0 is no effect, 10 is complete control): 2; Barnyardgrass plant response rating (bamyardgrass; Rate 62 g/ha, Postemergence (flood test species), scale of 0 to 10 where 0 is no effect and 10 is complete control): 0; Plant response rating, Barnyardgrass (bamyardgrass; Rate 250 g/ha, Postemergence (flood test species), scale of 0 to 10 where 0 is no effect and 10 is complete control): 9; Plant response rating, Barnyardgrass (bamyardgrass; Rate 500 g/ha, listed under Postemergence (flood test species), scale 0 to 10, 0 no effect, 10 complete control): 9; Plant response rating, B. signalgrass (surinam grass; [8]): 0; B. signalgrass plant response rating (surinam grass; [9]): 0; Plant response rating, Wild oats (wild oat; [8]): 0; Wild oats plant response rating (wild oat; [9]): 0; Plant response rating, Bedstraw (bedstraw; [8]): 0; Bedstraw plant response rating (bedstraw; [9]): 4; Plant response rating, Bedstraw (bedstraw; [6]): 5; Plant response rating, Bedstraw (bedstraw; [7]): 5
